Test results from patent US20110229575A1, “DEEP IMMERSION FLOTATION THERAPY FOR BURN VICTIMS” (priority 2008, published 2011).

Assays:
Lipophilicity of the PFC = type: physicochemical
Description: Circulation of the perflurocarbon liquid can be employed so that the patient floats without constraints, alleviating pain associated with usual system of treatment. As the liquid is continuously circulated, external heating or cooling of the fluid can be employed in order to maintain a comfort level for the patient. The fluid is preferably filtered to assure a biologically inert and/or sterile liquid environment for the patient. Additionally, a gas mixture containing 0 to 100% oxygen from (with adequate controls and precautions for ultra-ambient levels) is bubbled in the circulating PFC to supply oxygen to the patient's skin. PFCs are excellent transporters of oxygen and carbon dioxide; being that the PFCs are slightly lipophilic at body temperature and would help in the transport of oxygen into and removal of carbon dioxide from the skin tissue, accelerating the healing process.

[1] = Physical properties of F-tert-butylcyclohexane; type: physicochemical
Description: Oxycyte™ is based on the perfluorocarbon F-tert-butylcyclohexane, a saturated alicyctic PFC (molecular formula C10F20) and can be used as a PFC composition in the methods and uses described herein. Physical properties of F-tert-butylcyclohexane are as follows: […]

FC(F)(F)C(C(F)(F)F)(C(F)(F)F)C1(F)C(F)(F)C(F)(F)C(F)(F)C(F)(F)C1(F)F [F-tert-butylcyclohexane, perfluoro-tert-butylcyclohexane]
Lipophilicity (Lipophilicity of the PFC; at body temperature): only slightly lipophilic
Lipophilicity (Lipophilicity of the PFC; at room temperature): not lipophilic
Density [1]: 1.97 g/mL
Kinematic Viscosity [1]: 5.378 cP
Vapor Pressure ([1]; @25° C.): 3.8 mmHg
Vapor Pressure ([1]; @37° C.): 4.4 mmHg
